Measurements taken from patent US8206756B2, “Herbal composition for inflammatory disorders” (Piramal Life Sciences Limited, priority 2005, dated 2012).

Legend:
IL-1β = assay: LPS-stimulated IL-1β release in hPBMCs (ELISA); assay type: cell-based; settings: Homo sapiens; LPS-stimulated hPBMC
Description: (§1) Primary screening—Human peripheral blood mononuclear cells (hPBMCs). TNF-α production by lipopolysaccharides (LPS) in hPBMCs was measured according to the method described by Jansky, L. et al (Physiol. Res. 52: 593-598, (2003)). Blood was collected from healthy donors into Potassium EDTA vacutainer tubes (BD vacutainer). The PBMCs were isolated using gradient centrifugation in Histopaque-1077 solution (Sigma). Isolated PBMCs were suspended in RPMI 1640 culture medium (Gibco BRL, Pasley, UK) containing 10% fetal bovine serum (FBS) (Hyclone, Utah, USA), 100 U/ml penicillin (Sigma Chemical Co. St Louis, Mo.) and 100 μg/ml streptomycin (Sigma Chemical Co. St Louis, Mo.). The cell concentration was adjusted to 1×10^6 cells/ml. The viability as determined by trypan blue dye exclusion was uniformly ≧98%. […] The % inhibition was recorded. Percent cytotoxicity of the test samples compared to control was evaluated.
(§2) The effect of the plant extract on the proinflammatory cytokines: TNF-α, interleukin-1β (IL-1β), interleukin-6 (IL-6) and interleukin-8 (IL-8) was measured using the supernatants generated in the primary screening assay. […]
(§3) The effect of the Compound 1, on the proinflammatory cytokines: TNF-α interleukin-1β (IL-1β), interleukin-6 (IL-6) and interleukin-8 (IL-8) was measured using the supernatants generated in the primary screening assay. […]

[1] = tested on: Collagen-induced arthritis (CIA); assay: Collagen-induced arthritis (CIA) in DBA/1J mice; assay type: in vivo; settings: compared to vehicle treated group; H&E and Safranin O staining
Description: Male DBA/1J mice, aged 8-10 weeks, were immunized with 200 μg Collagen Type II as an emulsion in Freund's Complete Adjuvant, by an intradermal injection at the base of the tail. Twenty-one days later, the mice were administered a booster shot of 100 μg Collagen Type II. A set of naïve mice was also maintained alongside. From Day 23 onwards, the mice were assessed for the onset of rheumatoid arthritis using the Articular Index as a parameter. Mice with a minimum hind paw score of 2 were inducted into the study. Extract of example 1 was administered at a dose of 400 mpk (Milligram per kilogram body weight) by oral route twice daily for 12 days. Compound 1 was administered at a dose of 50 mpk and 100 mpk. by oral route twice daily for 12 days. Enbrel (3 mg/kg) was used as a standard and was given subcutaneous once daily. Paw volume and articular index were recorded daily. The data was analysed for statistical significance. On termination of the experiment the paws of the mice were processed for histopathological evaluation. Beneficial effect of extract of example 1 and compound 1 on pathology of arthritic (CIA) DBA/1J mice was evaluated. Microscopy was carried out after Hematoxylin and Eosin staining as well as Safranin O staining of synovial joints.

ICAM-1 = assay: Cell-ELISA for adhesion molecule expression in HUVECs: ICAM-1; assay type: cell-based; settings: Homo sapiens; TNF-α-induced surface expression, HUVEC
Description: The assay was designed on the basis of reference Transplantation, Vol 63(5), 759-764, 1997 with modifications.
Human Umbilical Vein Endothelial Cells (HUVECs) were obtained from Cascade Biologics and were maintained in M200 (Cascade Biologics, Portland, Oreg.) supplemented with low serum growth supplement (LSGS) at 37° C. in a 5% CO2 incubator. U937 cells (ATCC, Manassas, Va.) were grown in the RPMI 1640 medium supplemented with 10% FBS (Hyclone, Logan, Utah). Recombinant human TNFα, antibodies to VCAM-1, ICAM-1, E-Selectin were obtained from R&D Systems and LPS was obtained from Sigma (St. Louis, Mo.).
HUVECs were plated at […] in 96-well fibronectin-coated plates. The cells were stimulated with TNF-α (10 ng/ml) or LPS (1 μg/ml), 30 min after addition of test compound. After stimulation, cells (E-Selectin and ICAM-1) were fixed with paraformaldehyde in phosphate buffer saline (PBS). Non specific binding was blocked by 2% bovine serum albumin (BSA) in phosphate buffer saline (PBS) for 1 h, and the cells were incubated with primary antibody for 2 h. […] After washing, seven times, 3,3′5,5′-tetramethylbenzidine liquid substrate (TMB substrate) was added and the optical density of each well was determined at 450 nm using a microtitre plate reader (Spectramax, Molecular Devices, Calif.). […] Percent inhibition of the test sample compared to the control is evaluated. […]

IL-8 = assay: LPS-stimulated IL-8 release in hPBMCs (ELISA); assay type: cell-based; settings: Homo sapiens; LPS-stimulated hPBMC
Description: as §1, §2, §3

IC50 (IL-1β): 0.4 µM | IC50 (ICAM-1): 0.52 µM | IC50 (IL-8): 8.9 µM
Structure (SMILES): C=C1C(=O)OC2C3=C(C)CCCC3(C)CCC12O (stereo not shown) [Compound 1, 3a-hydroxy-5a,9-dimethyl-3-methylene-3a,4,5,5a,6,7,8,9b-octahydro-3H-naphtho[1,2-b]furan-2-one]
Histopathological analysis of synovial joints [1]: beneficial effects in terms of reducing cartilage destruction, bone destruction and synovitis
